Tested on: S. lividans
Type: cell-based
Conditions: relative to S. lividans without the plasmid

CC(NC(=O)C(C)NC(=O)C(N)CCP(C)(=O)O)C(=O)O (stereo not shown) [Bialaphos]
resistance to Bialaphos of S. lividans strains containing pBG20: more than 500 times

Reference: patent USRE44962E1, “Genetically engineered plant cells and plants exhibiting resistance to glutamine synthetase inhibitors, DNA fragments and recombinants for use in the production of said cells and plants” (Bayer Cropscience N.V., priority 1986, dated 2014)
